# Reference: article doi:10.1101/2025.09.11.675743v1 (biorxiv, 2025)
# Target: hERG (Homo sapiens, UniProt Q12809)
# Assay: hERG safety counterscreen
# Assay type: cell-based
# Sequence of hERG (Q12809 whole entry): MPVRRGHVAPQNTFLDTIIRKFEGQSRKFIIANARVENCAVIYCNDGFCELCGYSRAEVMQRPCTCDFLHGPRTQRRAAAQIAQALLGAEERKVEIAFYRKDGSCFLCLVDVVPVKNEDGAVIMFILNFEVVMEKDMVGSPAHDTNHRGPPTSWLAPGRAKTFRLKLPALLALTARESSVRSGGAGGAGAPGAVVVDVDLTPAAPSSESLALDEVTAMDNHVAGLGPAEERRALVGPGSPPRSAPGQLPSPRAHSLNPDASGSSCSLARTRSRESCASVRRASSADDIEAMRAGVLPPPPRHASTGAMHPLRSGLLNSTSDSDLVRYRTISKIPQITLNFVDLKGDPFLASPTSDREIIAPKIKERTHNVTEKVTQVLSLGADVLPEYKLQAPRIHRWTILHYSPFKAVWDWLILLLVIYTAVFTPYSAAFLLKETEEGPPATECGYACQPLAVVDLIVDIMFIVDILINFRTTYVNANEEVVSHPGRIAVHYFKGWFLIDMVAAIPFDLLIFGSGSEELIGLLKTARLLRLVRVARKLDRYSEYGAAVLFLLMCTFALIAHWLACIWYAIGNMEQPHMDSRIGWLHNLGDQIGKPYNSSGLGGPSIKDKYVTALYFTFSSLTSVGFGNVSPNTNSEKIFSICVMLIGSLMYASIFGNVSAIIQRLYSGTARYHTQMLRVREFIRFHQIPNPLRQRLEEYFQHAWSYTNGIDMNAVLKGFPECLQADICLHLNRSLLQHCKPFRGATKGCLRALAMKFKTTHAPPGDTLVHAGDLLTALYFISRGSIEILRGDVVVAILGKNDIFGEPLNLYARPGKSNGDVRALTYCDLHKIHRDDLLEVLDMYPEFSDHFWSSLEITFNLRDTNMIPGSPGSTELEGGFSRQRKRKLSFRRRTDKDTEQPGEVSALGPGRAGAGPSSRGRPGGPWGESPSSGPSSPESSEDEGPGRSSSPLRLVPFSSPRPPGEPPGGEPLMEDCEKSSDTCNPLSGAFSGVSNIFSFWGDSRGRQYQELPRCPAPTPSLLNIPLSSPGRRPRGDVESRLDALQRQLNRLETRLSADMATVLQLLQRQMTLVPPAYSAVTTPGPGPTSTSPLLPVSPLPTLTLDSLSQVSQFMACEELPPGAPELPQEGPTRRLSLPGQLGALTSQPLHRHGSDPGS
row,SMILES,IC50
1,c1ccc(CCNc2nc(-c3c[nH]c4ccccc34)cs2)cc1 [T2M-010],> 60 µM

# Target: T1, recombinant human TREM2 protein (Homo sapiens, UniProt Q9NZC2)
# T1 sequence (Q9NZC2 19-174 limits assumed): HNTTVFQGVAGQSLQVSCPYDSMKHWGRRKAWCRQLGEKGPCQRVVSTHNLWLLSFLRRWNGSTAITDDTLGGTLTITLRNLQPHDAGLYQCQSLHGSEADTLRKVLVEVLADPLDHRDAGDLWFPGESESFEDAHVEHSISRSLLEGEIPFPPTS
# Assay: microscale thermophoresis
# Assay type: binding
row,SMILES,Kd
1,CNc1nc(-c2c[nH]c3ccccc23)cs1 [T2M-016],2.44 ± 0.3 µM
2,c1ccc(Nc2nc(-c3c[nH]c4ccccc34)cs2)nc1 [T2K-014],28.9 ± 1.74 µM
3,c1ccc(CCNc2nc(-c3c[nH]c4ccccc34)cs2)cc1 [T2M-010],0.83 ± 0.1 µM
4,c1ccc(Nc2nc(-c3c[nH]c4ccccc34)cs2)cc1 [T2M-002],50.8 ± 3.74 µM
5,c1ccc2c(-c3csc(NC4CC4)n3)c[nH]c2c1 [T2M-003],1.35 ± 0.16 µM
